Reference: US7521478B2, “Total synthesis of myriaporones” (Pharma Mar, S.A.U., priority 2002, dated 2009)
Read-outs that look alike come from different tables or passages of the source.

What was measured:
Format in all cases: cell-based
LoVo-Dox = experiment: Inhibition of cell growth by colorimetric SRB assay, LOVO-DOX; settings: Homo sapiens, LOVO-DOX, 48 hours exposure; for LC50 (concentration for 50% cell killing): read-out: LC50; for IC (total growth inhibition): read-out: TGI
Source text: (§1) The finality of these assays is to interrupt the growth of a “in vitro” tumor cell culture by means a continued exhibition of the cells to the sample to be testing.
(§2) Inhibition of Cell Growth by Colorimetric Assay.
(§3) A colorimetric type of assay, using sulforhodamine B (SRB) reaction has been adapted for a quantitative measurement of cell growth and viability (following the technique described by P. A. Skehan, et al., J. Natl. CancerInst. 1990, 82, 1107-1112).
(§4) This form of assay employs 96 well cell culture microplates of 9 mm diameter (T. Mosmann et al., J. of Immuological Methods 1983, 65, 55-63; G. T. Faircloth et al., J. of Tissue and Culture Methods 1988, 11, 201-205). Most of the cell lines are obtained from American Type Culture Collection (ATCC) derived from different human cancer types.
(§5) Cells are maintained in RPMI 1640 10% FBS, supplemented with 0.1 g/L penicillin and 0.1 g/L streptomycin sulfate and then incubated at 37° C., 5% CO2 and 98% humidity. For the experiments, cells were harvested from subconfluent cultures using trypsin and resuspended in fresh medium before plating.
(§6) Cells are seeded in 96 well microtiter plates, at 5×10^3 cells per well in aliquots of 195 μL medium, and they are allowed to attach to the plate surface by growing in drug free medium for 18 hours. Afterward, samples are added in aliquots of 5 μL in a ranging from 10 to 10^−8 μg/mL, dissolved in DMSO/EtOH/PBS (0.5:0.5:99). After 48 hours exposure, the antitumor effect are measured by the SRB methodology: cells are fixed by adding 50 μL of cold 50% (wt/vol) trichloroacetic acid (TCA) and incubated for 60 minutes at 4° C. Plates are washed with deionizer water and dried. One hundred μl of SRB solution (0.4% wt/vol in 1% acetic acid) is added to each microliter well and incubated for 10 minutes at room temperature. Unbound SRB is removed by washing with 1% acetic acid. Plates are air dried and bound stain is solubilized with Tris buffer. Optical densities are read on a automated spectrophotometric plate reader at a single wavelength of 490 nm.
(§7) The values for mean +/−SD of data from triplicate wells are calculated. Some parameters for cellular responses can be calculated: GI=growth inhibition, TGI=total growth inhibition (cytostatic effect) and LC=cell killing (cytotoxic effect).

LoVo = experiment: Inhibition of cell growth by colorimetric SRB assay, LOVO; settings: Homo sapiens, LOVO, 48 hours exposure; for LC50: cell killing, read-out: LC50; for IC (total growth inhibition): read-out: TGI
Source text: as §1, §2, §3, §4, §5, §6, §7

HeLa-APL = experiment: Inhibition of cell growth by colorimetric SRB assay, HELA-APL; settings: Homo sapiens; for CC50: cell killing, read-out: LC50 (the source's name)
Source text: as §1, §2, §3, §4, §5, §6, §7

K-562 = experiment: Inhibition of cell growth by colorimetric SRB assay, K-562; settings: Homo sapiens, K562, K-562, 48 hours exposure; for CC50: cell killing, read-out: LC50 (the source's name); for IC (total growth inhibition): read-out: TGI
Source text: as §1, §2, §3, §4, §5, §6, §7

DU-145 = experiment: Inhibition of cell growth by colorimetric SRB assay, DU-145; settings: Homo sapiens, DU-145, 48 hours exposure; for CC50: cell killing, read-out: LC50 (the source's name); for IC (total growth inhibition): read-out: TGI
Source text: as §1, §2, §3, §4, §5, §6, §7

IGROV-ET = experiment: Inhibition of cell growth by colorimetric SRB assay, IGROV-ET; settings: Homo sapiens, IGROV-ET, 48 hours exposure; for CC50: cell killing, read-out: LC50 (the source's name); for IC (total growth inhibition): read-out: TGI
Source text: as §1, §2, §3, §4, §5, §6, §7

SK-MEL-28 = experiment: Inhibition of cell growth by colorimetric SRB assay, MEL-28; settings: Homo sapiens, SK-MEL-28, MEL-28, 48 hours exposure; for CC50: cell killing, read-out: LC50 (the source's name); for IC (total growth inhibition): read-out: TGI
Source text: as §1, §2, §3, §4, §5, §6, §7

HeLa = experiment: Inhibition of cell growth by colorimetric SRB assay, HELA; settings: Homo sapiens, HELA, 48 hours exposure; for CC50: cell killing, read-out: LC50 (the source's name); for IC (total growth inhibition): read-out: TGI
Source text: as §1, §2, §3, §4, §5, §6, §7

PANC-1 = experiment: Inhibition of cell growth by colorimetric SRB assay, PANC-1; settings: Homo sapiens, PANC-1, 48 hours exposure; for CC50: cell killing, read-out: LC50 (the source's name); for IC (total growth inhibition): read-out: TGI
Source text: as §1, §2, §3, §4, §5, §6, §7

IGROV = experiment: Inhibition of cell growth by colorimetric SRB assay, IGROV; settings: Homo sapiens, 48 hours exposure; for CC50: cell killing, read-out: LC50 (the source's name); for IC (total growth inhibition): read-out: TGI
Source text: as §1, §2, §3, §4, §5, §6, §7

HT-29 = experiment: Inhibition of cell growth by colorimetric SRB assay, HT-29; settings: Homo sapiens, HT-29, 48 hours exposure; for CC50: cell killing, read-out: LC50 (the source's name); for IC (total growth inhibition): read-out: TGI
Source text: as §1, §2, §3, §4, §5, §6, §7

A-549 = experiment: Inhibition of cell growth by colorimetric SRB assay, A-549; settings: Homo sapiens, A549, A-549, 48 hours exposure; for CC50: cell killing, read-out: LC50 (the source's name); for IC (total growth inhibition): read-out: TGI
Source text: as §1, §2, §3, §4, §5, §6, §7

SK-BR-3 = experiment: Inhibition of cell growth by colorimetric SRB assay, SK-BR-3; settings: SK-BR-3, 48 hours exposure; for GI50 / CC50: Homo sapiens; for CC50: cell killing, read-out: LC50 (the source's name); for TGI: total growth inhibition
Source text: as §1, §2, §3, §4, §5, §6, §7

LNCaP = experiment: Inhibition of cell growth by colorimetric SRB assay, LN-caP; settings: Homo sapiens, LN-caP, 48 hours exposure; for CC50: cell killing, read-out: LC50 (the source's name); for IC (total growth inhibition): read-out: TGI
Source text: as §1, §2, §3, §4, §5, §6, §7

## C/C=C\[C@H](C)[C@H]1O[C@@]1(C)[C@@H](O)[C@@H](CO)C(=O)[C@H](CO)[C@@H](O)CC(=O)CC [3a + 4a]
LoVo-Dox
  GI50: 0.152 µM
  LC50 (concentration for 50% cell killing): 26.8 µM
  IC (total growth inhibition): 1.36 µM
LoVo
  GI50: 0.0822 µM
  LC50: 17.7 µM
  IC (total growth inhibition): 1.35 µM
HeLa-APL; HELA-APL, 48 hours exposure
  CC50: 14.7 µM
HeLa-APL; HELA-APL, 48 hours exposure, read-out: GI50
  GI50: 0.0733 µM
HeLa-APL; HELA-APL, 48 hours exposure, total growth inhibition, read-out: TGI
  IC (total growth inhibition): 0.983 µM
K-562
  GI50: 0.521 µM
  CC50: 8.4 µM
  IC (total growth inhibition): 1.46 µM
DU-145
  GI50: 0.0631 µM
  CC50: 2.03 µM
  IC (total growth inhibition): 0.403 µM
IGROV-ET
  GI50: 0.1 µM
  CC50: 26.8 µM
  IC (total growth inhibition): 1.07 µM
SK-MEL-28
  GI50: 0.0754 µM
  CC50: 12 µM
  IC (total growth inhibition): 0.832 µM
HeLa
  GI50: 0.0728 µM
  CC50: 7.14 µM
  IC (total growth inhibition): 0.55 µM
PANC-1
  GI50: 0.0897 µM
  CC50: 26.8 µM
  IC (total growth inhibition): 2.95 µM
IGROV
  GI50: 0.073 µM
  CC50: 3.92 µM
  IC (total growth inhibition): 0.376 µM
HT-29
  GI50: 0.0601 µM
  CC50: 26.8 µM
  IC (total growth inhibition): 1.18 µM
A-549
  GI50: 0.144 µM
  CC50: 15.6 µM
  IC (total growth inhibition): 2.59 µM
SK-BR-3
  GI50: 0.0303 µM
  CC50: 5.34 µM
  TGI: 4.75E−07 Molar
LNCaP
  GI50: 0.0819 µM
  CC50: 5.32 µM
  IC (total growth inhibition): 0.553 µM

## C/C=C\[C@H](C)[C@H]1OC1(C)[C@@H](O[Si](C)(C)C(C)(C)C)[C@@H](CO[Si](C)(C)C(C)(C)C)C(=O)[C@H](CO[Si](C)(C)C(C)(C)C)[C@@H](CC(=O)CC)O[Si](C)(C)C(C)(C)C (stereo partly drawn) [Compound 19b]
LoVo-Dox
  GI50: 12 µM
  LC50 (concentration for 50% cell killing): 12 µM
  IC (total growth inhibition): 12 µM
LoVo
  GI50: 12 µM
  LC50: 12 µM
  IC (total growth inhibition): 12 µM
HeLa-APL; HELA-APL, 48 hours exposure
  CC50: 12 µM
K-562
  GI50: 12 µM
  CC50: 12 µM
  IC (total growth inhibition): 12 µM
DU-145
  GI50: 12 µM
  CC50: 12 µM
  IC (total growth inhibition): 12 µM
IGROV-ET
  GI50: 12 µM
  CC50: 12 µM
  IC (total growth inhibition): 12 µM
SK-MEL-28
  GI50: 12 µM
  CC50: 12 µM
  IC (total growth inhibition): 12 µM
HeLa
  GI50: 12 µM
  CC50: 12 µM
  IC (total growth inhibition): 12 µM
PANC-1
  GI50: 12 µM
  CC50: 12 µM
  IC (total growth inhibition): 12 µM
IGROV
  GI50: 12 µM
  CC50: 12 µM
  IC (total growth inhibition): 12 µM
HT-29
  GI50: 12 µM
  CC50: 12 µM
  IC (total growth inhibition): 12 µM
A-549
  GI50: 12 µM
  CC50: 12 µM
  IC (total growth inhibition): 12 µM
SK-BR-3
  GI50: 6.15 µM
  CC50: 12 µM
  TGI: 1.17E−05 Molar
LNCaP
  GI50: 12 µM
  CC50: 12 µM
  IC (total growth inhibition): 12 µM

## C/C=C\[C@H](C)[C@H]1OC1(C)[C@@H](O[Si](C)(C)C(C)(C)C)[C@@H](COC(C)=O)C(=O)[C@H](COC(C)=O)[C@@H](CC(=O)CC)OC(C)=O (stereo partly drawn) [Compound 45]
LoVo-Dox
  GI50: 10.5 µM
  LC50 (concentration for 50% cell killing): 16.3 µM
  IC (total growth inhibition): 16.3 µM
LoVo
  GI50: 8.26 µM
  LC50: 16.3 µM
  IC (total growth inhibition): 16.3 µM
HeLa-APL; 48 h
  GI50: 16.3 µM
HeLa-APL; HELA-APL, 48 hours exposure
  CC50: 16.3 µM
K-562
  GI50: 16.3 µM
  CC50: 16.3 µM
  IC (total growth inhibition): 16.3 µM
DU-145
  GI50: 16.3 µM
  CC50: 16.3 µM
  IC (total growth inhibition): 16.3 µM
IGROV-ET
  GI50: 15.8 µM
  CC50: 16.3 µM
  IC (total growth inhibition): 16.3 µM
SK-MEL-28
  GI50: 16.3 µM
  CC50: 16.3 µM
  IC (total growth inhibition): 16.3 µM
HeLa
  GI50: 16.3 µM
  CC50: 16.3 µM
  IC (total growth inhibition): 16.3 µM
PANC-1
  GI50: 8.24 µM
  CC50: 16.3 µM
  IC (total growth inhibition): 16.3 µM
IGROV
  GI50: 16.3 µM
  CC50: 16.3 µM
  IC (total growth inhibition): 16.3 µM
HT-29
  GI50: 16.3 µM
  CC50: 16.3 µM
  IC (total growth inhibition): 16.3 µM
A-549
  GI50: 16.3 µM
  CC50: 16.3 µM
  IC (total growth inhibition): 16.3 µM
LNCaP
  GI50: 8.34 µM
  CC50: 16.3 µM
  IC (total growth inhibition): 16.3 µM
